# Tests used:
# PC3 cells = assay: Cytokine production by treated PC3 cells (ELISA); format: cell-based, Human; settings: 50 μM, 24 h
# From the text: Cancer cells recruit several pathways to evade elimination by the immune system (Kim et al., Immunology 121:1-14, 2007). Several mechanisms by which tumor cells escape immunity include upregulation of inhibitory molecules, production of immunosuppressive cytokines, and downregulation of costimulatory molecules (Rabinovich et al., Annu. Rev. Immunol. 25:267-296, 2007). Dendritic cells (DCs), the major players for the initiation of a specific anti-tumor T-cell response, are potential target to tumor-mediated immunosuppression. (Gabrilovich et al., Nat. Med. 2:1096-1103, 1996; Radmayr et al., Int. J. Cancer 63:627-632, 1995; Orsini et al., Cancer Res. 63:4497-4506, 2003.) Lactic acid secretion in highly proliferative glycolytic tumor has the ability to induce alteration in antigen phenotype and functional activity of DCs, which contributes to the suppression of local immunity (Gottfried et al. 2006). Tumor derived lactic acid inhibit the differentiation of monocytes to DCs, impair DC activation and antigen expression and suppress the proliferation, cytokine production and cytotoxic activity of T cells (Fischer et al., Blood 109:3812-3819, 2007). After observing significant and very selective reduction in lactate levels in PCa cells by MITO-DCA, the impact of the reduced lactate producing PC3 cell supernatants on DCs was investigated. […]
# Solubility study = format: physicochemical
# Protocol: Solubility of MITO-DCA in water was checked by preparing different concentration of MITO-DCA ranging from 2 μM to 5 mM in DMSO (0.1-2.5%)-phosphate buffered saline (PBS). At all concentrations, MITO-DCA was transparent.
smiles,measurement,setting,value
O=C(CCCCC[P+](c1ccccc1)(c1ccccc1)c1ccccc1)NC(COC(=O)C(Cl)Cl)(COC(=O)C(Cl)Cl)COC(=O)C(Cl)Cl.[Br-] [MITO-DCA],"Levels of IL-6, IL-10 and TNF-α from PC3 cells, compared with TPP-DCA or Na-DCA",PC3 cells,higher
same,Solubility in water (appearance of solution),Solubility study; 2 μM to 5 mM in DMSO (0.1-2.5%)-phosphate buffered saline (PBS),transparent
same,Solubility in an organic solvent,Solubility study; compared with DCA,far higher than that of DCA

# Source: patent US10004809B2, “Precise delivery of therapeutic agents to cell mitochondria for anti-cancer therapy” (UNIVERSITY OF GEORGIA RESEARCH FOUNDATION, INC., priority 2013, dated 2018)
